Data published in US7604990B2, “Methods of regulating differentiation in stem cells” (ES Cell International Pte Ltd., priority 2002, dated 2009).

How the values were obtained:
hES cells [1] = experiment: Direct observation of hES colonies in serum-depleted medium (Example 4); assay type: cell-based, human
Experimental: (A) hES cells grown with feeder, before the depletion in serum. (B) hES cells grown without serum after 8 days (B, C) and 12 days (D, E), in absence (B, D) or presence of S1P (C, E, 10 μM).
For direct observation, hES-3 cells were coated into 12-well plates (3 colonies per well), with or without mouse embryonic feeders (MEFs). The day following the plating, cells were incubated with the different agents in serum free medium containing insulin, transferring and selenium. Media was changed the 2nd day and then every 2 days.

hES cells [2] = experiment: ELISA-based GCTM-2 quantification in hES cells (Example 2); assay type: cell-based, human; conditions: treated 2 weeks, serum-free; n=3
Experimental: hES-3 cells were cultured as previously described^1. The serum-free culture medium consisted of DMEM (without sodium pyruvate, glucose 4500 mg/l, Invitrogen, Mount Waverley, VIC, Australia) supplemented with insulin/transferrin/selenium 1%, β-mercaptoethanol 0.1 mM, NEAA 1%, glutamine 2 mM, Hepes 25 mM, penicillin 50 U/ml and streptomycin […] (all from Invitrogen). Media was changed every 2 days and cells were passaged every week S1P and dihydro-S1P were obtained from Biomol (Plymouth Meeting, Pa., USA). LPA was obtained from Sigma (Castle Hill, NSW, Australia). Extemporaneous dilutions of all lipids were made in water containing 0.1% fatty acid-free bovine serum albumin (BSA) (Sigma). S1P and dihydro-S1P were used at […]. Human PDGF-AB, PDGF-AA, PDGF-BB were from Prepro Tech Inc. (Rocky Hill, N.J., USA) and were used at 20 ng/ml.
Cells were fixed in 100% ethanol and immunostained with GCTM-2 followed by alkaline phosphatase-coupled secondary antibodies (Dako). Alkaline phosphatase activity was detected by adding a solution of 4-nitrophenyl phosphate (Roche), and the concentration of the reaction product was determined by reading the optical density (OD) at 405 nm. In order to validate the technique as an accurate indicator of the proportion of GCTM-2 positive cells, standard curves were carried out with the embryonal carcinoma cell line GCT27C4, known to express GCTM-2^20.

hES cells [3] = experiment: Double immunostaining GCTM-2/PCNA of dissociated hES cells (Example 4); assay type: cell-based, human; conditions: 4 days without serum; S1P 10 μM
Experimental: Double staining experiments were performed using antibodies for PCNA and GCTM-2.
For immunostaining, hES-3 cells were coated on chamber slides after mechanical dissociation, in order to obtain a monolayer culture. The day following the plating, cells were incubated with the different agents in a media depleted in serum. Media was changed the 2nd day and the cells were fixed 4 days after the first treatment.
Cells were washed in PBS, fixed with MeOH, and immunostaining was performed, using the specific stem cell marker antibody GCTM-2, and the specific cell proliferation marker PCNA. Cells were then washed and the nucleuses were stained with Hoechst-33342 (1 μg/ml). Slides were mounted and then observed by fluorescent microscopy. Cells were then counted in order to determine the ratio of proliferating stem cells within the overall population.

hES cells [4] = experiment: GCTM-2 quantification by alkaline phosphatase activity, hES cells on MEF, serum-free (Example 1); assay type: cell-based, human; conditions: 8 days serum-free on MEF; S1P 10 μM, PDGF 20 ng/ml; n=7
Experimental: (A) hES cells grown with MEF, before the depletion of serum from the medium. (B, C, D, E) hES cells grown without serum after 8 days, in the absence (B) or in the presence of S1P (10 μM) (C), PDGF (20 ng/ml) (D), S1P (10 μM) plus PDGF (20 ng/ml) (E). (F) hES cells grown without serum, in the presence or in the absence (control) of S1P (10 μM), PDGF (20 ng/ml), S1P (10 μM) plus PDGF (20 ng/ml). In A-E, data are representative of at least 3 independent experiments. In F, data expressed as percentages of alkaline phosphatase activity in absence of serum for eight days (% of control), are the means±SEM of at least 2 independent experiments, each run in triplicate.
hES-3 cells plated with MEF, were fixed in ethanol and immunostained with GCTM-2 and then with an alkaline phosphatase-coupled secondary antibody (Dako). The activity of alkaline phosphatase was detected by adding a solution of 4-nitrophenyl phosphate (Roche, Mannheim, Germany), followed by reading the optical density (OD) at 405 nm. In order to validate the technique as a relevant indicator of the proportion of GCTM-2 positive cells, standard curves were done with the teratocarcinoma cell line GCT27C4, known to express GCTM-2.

SPK in MEF = experiment: Sphingosine kinase activity in MEF after PDGF; assay type: cell-based, mouse; conditions: PDGF 20 ng/ml
[5] = tested on: sphingosine kinase (SPK) in hES cells; experiment: Sphingosine kinase activity in hES cells after PDGF; assay type: cell-based, human; conditions: PDGF 20 ng/ml
Experimental: hES-3 cells plated without MEF for 24 hr and depleted of serum for a further 18 hr were incubated in the presence of PDGF (20 ng/ml) for various time periods and were harvested and lysed by sonication (2 W for 30 s at 4° C.) in lysis buffer containing 50 mM Tris/HCl (pH 7.4), 10% glycerol, 0.05% Triton X-100, 150 mM NaCl, 1 mM dithiothreitol, 2 mM Na3VO4, 10 mM NaF, 1 mM EDTA and protease inhibitors (Complete™, Roche, Mannheim, Germany). SPK activity was determined using D-erythro-sphingosine and […] as substrates, as previously described^19. Protein concentrations in cell homogenates were determined with Coomassie Brilliant Blue reagent (Bio-Rad, Regent Park, NSW, Australia) using bovine serum albumin as standard.

**Q.** `CCCCCCCCCCCCC/C=C/[C@@H](O)[C@@H](N)COP(=O)(O)O` [S1P, Sphingosine-1-phosphate] was tested. Which “growth/differentiation of hES colonies on MEFs” value (hES cells [1]; S1P 10 μM 8 days, LPA up to 50 μM 12 days) did it give?
**A.** more compact and less differentiated

**Q.** What about the “effect on cell differentiation, hES cells grown without MEFs” value (hES cells [1]; without MEFs, n=3) of the same compound?
**A.** inhibitory effect

**Q.** And the “more GCTM2+ than the controls” value (hES cells [2])?
**A.** 18.0±17.0%

**Q.** And the “proliferating rate of hES cells (PCNA) versus control” value (hES cells [3])?
**A.** no marked difference

**Q.** Which results are given for PDGF?
**A.** more GCTM2+ than the control cells (alkaline phosphatase activity) (hES cells [4]): 16.6±7.0%; activation of SPK in MEF (SPK in MEF): did not induce a significant statistical activation of SPK; duration of SPK activity enhancement [5]: at least 60 min; SPK activity ([5]; 30 min, value printed in brackets after 'basal values', n=3): 75.3 ± 3.92 nmol/min/mg; SPK activity relative to basal values ([5]; after 30 min of incubation): 1.6 fold; more GCTM2+ than the controls (hES cells [2]): 50.3±18.4%
